Laboratory results published in patent US20130178441A1, “Methods for Extending Progression-Free Survival using 10-Propargyl-10-Deazaaminopterin” (ALLOS THERAPEUTICS, INC., priority 2010, published 2013).

Test system: relapsed or refractory PTCL
Assay: Progressive resistance analysis: PFS and response rate on pralatrexate vs previous lines of therapy (PDX-008, patients as their own control)
Type: in vivo, human
Details: for Progression-free Survival Median: Kaplan-Meier
Procedure: Analysis of progressive resistance. The treatment immediately prior to entry into clinical trial PDX-008 provides data from a heterogeneous control group reflecting clinical practice with which to compare the efficacy of pralatrexate. This dataset has the benefit of being from the same patients as those receiving pralatrexate, and so avoids inter-subject variation.
Methodology: In order to explore this progressive resistance concept, retrospective analyses were performed looking at patients' response and PFS to prior therapies using patients as their own control. It was hypothesized that the response rates and PFS would be lower with each subsequent line of therapy (hypothesis #1). Analyses were conducted on those patients who received at least 3 prior therapies. PFS and response rate of third prior therapy (−3) were compared with those of the second prior therapy (−2), PFS and response rate of second prior therapy (−2) were compared with those last line of therapy (−1) prior to pralatrexate, and PFS and response rate of last line of therapy (−1) were compared with pralatrexate therapy for these patients. These analyses utilized investigator assessment of PFS, and response since central review of tumor assessments on prior therapies was not available.
Therefore, an analysis was conducted on all patients comparing PFS and response rate of last line of therapy with those of pralatrexate therapy.
For examining hypothesis #1, there were 57 patients (−3) who had undergone at least 3 prior therapies before entry into PDX-008. […] Examination of the pattern beyond 3 previous treatments would be progressively uninformative as fewer and fewer patients would be entered into the analysis. 1. See also FIG. 2.
There were 86 patients who had undergone at least 2 prior therapies before entry into PDX-008. This cohort included the 57 patients who received 3 or more previous treatments and 29 additional patients who received exactly 2 treatments prior to treatment with pralatrexate.
For examining hypothesis #2, PFS and response rate were compared following pralatrexate treatment with the treatment immediately prior to study entry for all 109 PTCL patients evaluated for efficacy in PDX-008. This cohort included the 86 patients who received 2 or more previous treatments and 23 patients who received only 1 treatment prior to pralatrexate.
Overview of Calculations: Time to progression of disease (PD) was calculated from the start date of the prior therapy administered to the date of progression+1 day.
PFS time was calculated as the number of days from start of prior treatment to the date of PD (date of PD−start date of prior treatment+1).
PFS time was calculated as the number of days from start of treatment to the date of PD or death, regardless of cause (date of PD or death−start date of pralatrexate treatment+1).
In addition, the PFS hazard ratio (HR), along with 95% confidence intervals (CIs), were estimated via the Cox regression model.
To assess the objective response rate (ORR) and PFS with each subsequent line of therapy and the effect of pralatrexate on ORR and PFS: In the first population group (n=57), i.e., group including patients with ≧3 prior systemic therapies, PFS and ORR of the third therapy prior to pralatrexate (−3) were compared with those of the second prior therapy (−2) to pralatrexate; PFS and ORR of the second prior therapy (2) were compared with those of the most recent line of therapy (−1) prior to pralatrexate; and PFS and ORR of the most recent line of therapy (−1) were compared with pralatrexate therapy for these patients.
In the second population group (n=86), i.e., group including patients with ≧2 prior systemic therapies, PFS and ORR of the second prior therapy (2) were compared with those of the most recent line of therapy (−1) prior to pralatrexate; and PFS and ORR of the most recent therapy (−1) were compared with pralatrexate therapy for these patients.

[1] = all patients (≧1 prior therapy), N=109, investigator assessment
[2] = patients with ≧2 previous treatments, N=86, investigator assessment
[3] = patients with ≧3 previous treatments, N=57, investigator assessment

In the case of `C#CCC(Cc1cnc2nc(N)nc(N)c2n1)c1ccc(C(=O)N[C@@H](CCC(=O)O)C(=O)O)cc1` (mixture of isomers) [Pralatrexate, (2S)-2-[[4-[(1RS)-1-[(2,4-diaminopteridin-6-yl)methyl]but-3-ynyl]benzoyl]amino]pentanedioic acid], the “Response Rate” value [1] is reported as 39%, the “Progression-free Survival Median” value [1] is reported as 121.00 days and the “PFS Hazard Ratio, −1 vs pralatrexate” value (all patients, N=109, Cox regression, 95% CI) is reported as 1.051. The “Response Rate (ORR)” value [2] was 40%, the “Progression-free Survival Median” value [2] was 119.00 days and the “Progression-free Survival Median” value (patients with ≧2 previous treatments, N=86, investigator assessment, listed as pralatrexate) was 119 days. The “Trend of decreased ORR and PFS with successive lines of therapy” value (patients with ≧3 or ≧2 previous treatments) was “reversed”, the “Response Rate (ORR)” value [3] was 40% and the “Progression-free Survival Median” value [3] was 134.00 days. The “Progression-free Survival Median” value (patients with ≧3 previous treatments, N=57, investigator assessment, listed as pralatrexate) was 134 days.
